The source of these data is US11267823B2, “Substituted 1,2,3,3a,4,5,7,9,13,13a-decahydropyrido[1′,2′:4,5]pyrazino[1,2-a]pyrrolo[1,2-c]pyrimidines having HIV integrase inhibitory activity” (Shionogi & Co., Ltd., priority 2005, dated 2022).

A value given as a limit tells only on which side of the number the result lay.

The assay concerns VSV-g pseudotyped HIV vector that expresses luciferase (PHIV). Description: microbe, parasite or virus in culture. The class given is cell-based. To be noted: Human immunodeficiency virus 1, HEK-293T, 48 h, read-out: PHIV IC50.
In general, IC50 refers to the concentration needed to halve the response being measured. For the compound `CC(C)N1CC[C@@H](C)N2C(=O)c3c(O)c(=O)c(C(=O)NCc4ccc(F)cc4)cn3C[C@H]12` [Example Z-30, (4R,12aR)—N-[(4-Fluorophenyl)methyl]-7-hydroxy-4-methyl-1-(1-methylethyl)-6,8-dioxo-1,2,3,4,6,8,12,12a-octahydropyrido[1′,2′:4,5]pyrazino[1,2-a]pyrimidine-9-carboxamide], the IC50 was under 10 nM.

In the case of `C[C@H]1CCN(C2CCSCC2)[C@@H]2Cn3cc(C(=O)NCc4ccc(F)cc4F)c(=O)c(O)c3C(=O)N12` [Example Z-60, (4S,12aS)—N-[(2,4-Difluorophenyl)methyl]-7-hydroxy-4-methyl-6,8-dioxo-1-(tetrahydro-2H-thiopyran-4-yl)-1,2,3,4,6,8,12,12a-octahydropyrido[1′,2′:4,5]pyrazino[1,2-a]pyrimidine-9-carboxamide], the IC50 was under 10 nM.

`O=C(NCc1ccc(F)cc1)c1cn2c(c(O)c1=O)C(=O)N1CC[C@@H]3CCCN3[C@@H]1C2` [Example Z-7, (3aS,13aS)—N-[(4-Fluorophenyl)methyl]-8-hydroxy-7,9-dioxo-1,2,3,3a,4,5,7,9,13,13a-decahydropyrido[1′,2′:4,5]pyrazino[1,2-a]pyrrolo[1,2-c]pyrimidine-10-carboxamide]: the IC50 was under 10 nM.

As to `O=C(NCc1ccc(F)cc1F)c1cn2c(c(O)c1=O)C(=O)N1CC[C@H]3CCCCN3[C@H]1C2` [Example Z-42, (4aR,14aR)—N-[(2,4-Difluorophenyl)methyl]-9-hydroxy-8,10-dioxo-2,3,4,4a,5,6,8,10,14,14a-decahydro-1H-pyrido[1,2-c]pyrido[1′,2′:4,5]pyrazino[1,2-a]pyrimidine-11-carboxamide], the IC50 is under 10 nM.

Turning to `C[C@H]1CCN(Cc2ccco2)[C@@H]2Cn3cc(C(=O)NCc4ccc(F)cc4F)c(=O)c(O)c3C(=O)N12` [Example Z-33, (4S,12aS)—N-[(2,4-Difluorophenyl)methyl]-1-(1-furanylmethyl)-7-hydroxy-4-methyl-6,8-dioxo-1,2,3,4,6,8,12,12a-octahydropyrido[1′,2′:4,5]pyrazino[1,2-a]pyrimidine-9-carboxamide], the concentration for half-maximal inhibition (IC50) was under 10 nM.

For `CC(C)CCN1CC[C@@H](C)N2C(=O)c3c(O)c(=O)c(C(=O)NCc4ccc(F)cc4F)cn3C[C@H]12` [Example Z-43], the IC50 is under 10 nM.

Consider `O=C(NCc1ccc(F)cc1F)c1cn2c(c(O)c1=O)C(=O)N1[C@H](c3ccccc3)[C@H](c3ccccc3)O[C@@H]1C2` [Example Z-24, (2S,3R,11aR)—N-[(2,4-Difluorophenyl)methyl]-6-hydroxy-5,7-dioxo-2,3-diphenyl-2,3,5,7,11,11a-hexahydro[1,3]oxazolo[3,2-a]pyrido[1,2-d]pyrazine-8-carboxamide], for which the IC50 is under 10 nM.

For the compound `CN1C[C@@H]2CCCC[C@@H]2N2C(=O)c3c(O)c(=O)c(C(=O)NCc4ccc(F)cc4F)cn3C[C@@H]12` (racemic) [Example Z-53, racemic-(4aS,6aS,14aS)—N-[(2,4-Difluorophenyl)methyl]-12-hydroxy-6-methyl-11,13-dioxo-1,2,3,4,4a,5,6,6a,7,11,13,14a-dodecahydropyrido[1′,2′:4,5]pyrazino[1,2-a]quinazoline-10-carboxamide], the IC50 was under 10 nM.

With `C[C@H]1CO[C@@H]2Cn3cc(C(=O)NCc4ccc(F)cc4)c(=O)c(O)c3C(=O)N12` [Example Z-10, (3S,11aR)—N-[(4-fluorophenyl)methyl]-6-hydroxy-3-methyl-5,7-dioxo-2,3,5,7,11,11a-hexahydro[1,3]oxazolo[3,2-a]pyrido[1,2-d]pyrazine-8-carboxamide], the IC50 is under 10 nM.

`O=C(NCc1ccc(F)cc1)c1cn2c(c(O)c1=O)C(=O)N1C[C@H]3CCCN3[C@@H]1C2` [Example Z-5, (4aS,13aR)—N-[(4-Fluorophenyl)methyl]-10-hydroxy-9,11-dioxo-2,3,4a,5,9,11,13,13a-octahydro-1H-pyrido[1,2-a]pyrrolo[1′,2′:3,4]imidazo[1,2-d]pyrazine-8-carboxamide]: the IC50 is under 10 nM.
